Measured values published in patent US6469055B2, “Compositions and methods for treatment of neurological disorders and neurodegenerative diseases” (Massachusetts Institute of Technology, priority 1996, dated 2002).
“Also recorded” adds a separate entry of the source. Structures can show the parent of a compound that is named as a salt.

Columns and labels:
secreted APP (APPs) = experiment: APPs secretion into the media of cultured cortical astrocytes, Western blot; assay type: cell-based, rat
Description: Astrocytes are isolated from cortices from postnatal rats. […] Media are changed twice weekly.
To detect secreted APP, culture media was collected after drug treatments and phenylmethylsulfonyl fluoride was added to a final concentration of 2 mM. The media samples were then applied to Sephadex PD-10 desalting columns (Pharmacia) and eluted with distilled water. Column eluates were frozen and dried by vacuum centrifugation. The lyophilized proteins were reconstituted in 25 μL water followed by 25 μL of 2X Laemmli gel loading buffer, and boiled for 5 min.
(§1) Assays of PI hydrolysis are conducted as previously reported. Also, measurements of APPs are conducted as previously reported.

APP holoprotein = experiment: Cell-associated APP (APP holoprotein), Western blot, cultured cortical astrocytes; conditions: for effect on cell-associated APP (APP holoprotein): PMA 5 μM or DNF 100 μM, hydrochloride; for effect on cell-associated APP (APP holoprotein) / effect on the increase in APP holoprotein stimulated by PG E2: 24 h; for effect on basal APP holoprotein: p>0.05; for effect on the increase in APP holoprotein stimulated by PG E2: PG E2 10 μM
Description: Astrocytes are isolated from cortices from postnatal rats. […] In brief, dissected cortices were dissociated by trypsinization and trituration through a flame-polished Pasteur pipette. Cells were plated onto poly-L-lysine coated 35- or 100 mm culture dishes at densities of about 10-25 cells/mm^2. […] Media are changed twice weekly. […] Pharmacological manipulations are performed in serum-free media on 7-14 DIV confluent astrocytes.
To detect cell-associated protein (APP or GFAP), astrocytes from 35 mm dishes are scraped in lysis buffer (60 mM Tris/HCl, 4% SDS, 20% glycerol, 1 mM dithiothreitol), ultrasonicated and boiled for 5 min. The total amount of cell protein per dish, estimated using the bicinchoninic acid assay, is not altered by pharmacological treatments. Bromphenol blue (0.1%) is added to each sample and equal amounts of protein (˜75 mg/lane) are loaded on 10% SDS-polyacrylamide gels.
(§2) The amount of media or cell protein loaded for sodium dodecyl sulfate-polyacrylamide gel electrophoresis (10-20% SDS PAGE; Bio-Rad) was normalized for the amount of protein per sample. […] After 2×10 min rinses in TBST, the membranes were incubated in TBST containing an appropriate antibody. Monoclonal antibodies 22C11 and GFAP (both from Boehringer-Mannheim) were used to detect the N-terminus of APP and glial fibrillary acidic protein respectively; antisera R37 and R98 (gifts of Dr. F. Kametani, Tokyo Institute of Psychiatry) were used to detected the C-terminus and KPI motifs of APP respectively; antiserum C8 (gift of Dr. D. Selkoe, Women's Hospital, Harvard Medical School, Cambridge, Mass.) was used to detect the C-terminus of APP.
After an overnight incubation, membranes were rinsed in TBST before being treated for 1h with a peroxidase-linked secondary antibody. After several rinses in TBST, protein bands were visualized on Kodak X-AR films by an enhanced chemiluminescence method (Amersham). Optical densities of the protein bands were quantitated by laser scanning densitometry (LKB, Bromma, Sweden), and normalized to the densities of those bands generated under control conditions.

PI hydrolysis = PI hydrolysis in cultured astrocytes; assay type: cell-based, rat
Description: as §1

APP mRNA = experiment: APP mRNA, Northern blot, cultured cortical astrocytes; conditions: for effect on the increase in APP mRNA stimulated by PG E2: EGTA or KN-93 100 μM, PG E2 10 μM
Description: Pharmacological manipulations are performed in serum-free media on 7-14 DIV confluent astrocytes.
Total RNA from astrocytes grown on 100 mm dishes is extracted by the acid guanidium thiocyanate-phenol-chloroform method. […] In brief, the medium was aspirated and the cells were scraped in 1 mL of TRI Reagent. After incubation for 15 min at room temperature, 0.2 ml chloroform was added, mixed vigorously with TRI Reagent and the mixture was stored for another 15 min at room temperature. After centrifugation at 12,000 g for 15 min, 0.5 ml isopropanol was added to the aqueous phase of the mixture to precipitate RNA. The RNA pellet collected by centrifugation (12,000 g, 15 min at 4° C.) was washed with 70% ethanol. once and solubilized in an appropriate amount of Formazol (Molecular Research Center, Cincinnati, Ohio). […] RNA was blotted onto Hybond polyvinyl membranes by overnight capillary transfer and fixed onto the membranes by UV light illumination. […] Membranes were dried and exposed to Kodak X-ray film for 24-48 h with an Amersham enhancer sheet. The relative amounts of mRNA obtained by hybridization were estimated using densitometric analysis of autoradiographs. The levels of APP mRNA were normalized to the amounts of G3PDH mRNA and expressed as a ratio to the levels of untreated, control cells.

cellular cAMP levels = experiment: cAMP assay in cultured astrocytes; assay type: cell-based, rat; conditions: for effect on cellular cAMP levels stimulated by PG E2: EGTA or KN-93, PG E2 10 μM
Description: In brief, after aspirating the medium and rinsing twice with 1 ml ice cold PBS, the cells were scraped in 0.8 ml ice cold ethanol and sonicated. […] After resuspension in 120 μl Tris/EDTA buffer, two duplicate samples of 50 μl each were mixed with the binding protein, [8-^3H] adenosine 3′, 5′-cyclic phosphate tracer and incubated at 2-4° C. for 2 h. A charcoal suspension (100 μl) was added to the samples before centrifugation and 200 μl of the supernatant were removed for. scintillation counting. The amount of cyclic AMP (pmol/mg protein) was estimated by comparing to known standards, and normalized to the amounts of whole cell protein as determined by the bicinchoninic acid assay (Sigma).

APP synthesis = APP synthesis (APP mRNA and holoprotein) in cultured cortical astrocytes; assay type: cell-based, rat
[1] = test system: glial fibrillary acidic protein (GFAP); experiment: GFAP protein in cultured astrocytes, Western blot; assay type: cell-based, rat; conditions: 8Br-cAMP or NE
Description: To detect cell-associated protein (APP or GFAP), astrocytes from 35 mm dishes are scraped in lysis buffer (60 mM Tris/HCl, 4% SDS, 20% glycerol, 1 mM dithiothreitol), ultrasonicated and boiled for 5 min. […] Bromphenol blue (0.1%) is added to each sample and equal amounts of protein (˜75 mg/lane) are loaded on 10% SDS-polyacrylamide gels.
as §2
After an overnight incubation, membranes were rinsed in TBST before being treated for 1h with a peroxidase-linked secondary antibody. After several rinses in TBST, protein bands were visualized on Kodak X-AR films by an enhanced chemiluminescence method (Amersham). […]

astrocytes = experiment: Process formation of cultured astrocytes; assay type: cell-based, rat
[2] = DFU or DFP 10^-9-10^-3 M, 1 h, cultured astrocytes

Compound: CC1(C)OC(=O)C(c2cccc(F)c2)=C1c1ccc(S(C)(=O)=O)cc1 [DFU, 5,5-dimethyl-3-(3-fluorophenyl)-4-(4-methylsulphonyl)phenyl-2(5H)-furanone]
- secretion of soluble APPs (secreted APP (APPs); [2]): increases; also recorded: promotes
- levels of cellular APP holoprotein (APP holoprotein; [2]): decreases

Compound: C[C@H](N)Cc1cccc(C(F)(F)F)c1 [DNF, dexnorfenfluramine hydrochloride]
- APPs secretion relative to untreated cells (secreted APP (APPs); PMA 5 μM or DNF 100 μM, 1 hour, mAb22C11): significantly increases
- APPs secretion, to that of untreated cells (secreted APP (APPs); PMA 5 μM, dexnorfenfluramine 100 μM): ~2.2 fold
- PI hydrolysis relative to untreated astrocytes (PI hydrolysis; dexnorfenfluramine 100 μM, p<0.05): ~2.6 fold
- effect on cell-associated APP (APP holoprotein) (APP holoprotein): no effect
- effect on cell-associated APP (APP holoprotein) (APP holoprotein; listed as dexnorfenfluramine): does not increase
- effect on APP mRNA (APP mRNA; PMA 5 μM or dexnorfenfluramine 100 μM): does not increase

Compound: O=C(O)CN(CCOCCOCCN(CC(=O)O)CC(=O)O)CC(=O)O [EGTA]
- effect on basal cAMP levels (cellular cAMP levels; EGTA or KN-93 100 μM alone): no significant effect
- effect on cellular cAMP levels stimulated by PG E2 (cellular cAMP levels): Neither EGTA nor KN-93 had a significant effect
- effect on basal APP holoprotein (APP holoprotein; EGTA or KN-93 100 μM alone): no significant effect
- effect on the increase in APP holoprotein stimulated by PG E2 (APP holoprotein; EGTA or KN-93 100 μM): significantly inhibited
- effect on the increase in APP mRNA stimulated by PG E2 (APP mRNA; 24 h): significantly inhibited

Compound: C=CC[C@@H]1/C=C(\C)C[C@H](C)C[C@H](OC)[C@H]2O[C@@](O)(C(=O)C(=O)N3CCCC[C@H]3C(=O)O[C@H](/C(C)=C/[C@@H]3CC[C@@H](O)[C@H](OC)C3)[C@H](C)[C@@H](O)CC1=O)[C@H](C)C[C@@H]2OC [FK-506]
- effect on basal cAMP levels (cellular cAMP levels; cyclosporin A or FK-506 (50 μM) alone): no significant effect
- effect on basal APP holoprotein (APP holoprotein; cyclosporin A or FK-506 50 μM alone): no significant effect

Compound: NCCNS(=O)(=O)c1cccc2cnccc12 [H9]
- effect on APP synthesis (APP synthesis): decrease or inhibit

Compound: Cl.Cl.O=S(=O)(NCCNC/C=C/c1ccc(Br)cc1)c1cccc2cnccc12 [H-89, H-89 dihydrochloride]
- effect on the increase in APP holoprotein stimulated by PG E2 (APP holoprotein; H-89 100 μM): completely abolished
- effect on PG E2-stimulated APP mRNA production (APP mRNA; H-89 dihydrochloride): blocked

Compound: COc1ccc(S(=O)(=O)N(CCO)c2ccccc2CN(C)CC=Cc2ccc(Cl)cc2)cc1.O=P(O)(O)O [KN-93, N-[2-[[[3-(4′-chlorophenyl)-2-propenyl]methylamino]methyl]phenyl]-N-(2-hydroxyethyl)-4′-methoxy-benzenesulfonamide phosphate]
- effect on basal cAMP levels (cellular cAMP levels; EGTA or KN-93 100 μM alone): no significant effect
- effect on cellular cAMP levels stimulated by PG E2 (cellular cAMP levels): Neither EGTA nor KN-93 had a significant effect
- effect on basal APP holoprotein (APP holoprotein; EGTA or KN-93 100 μM alone): no significant effect
- effect on the increase in APP holoprotein stimulated by PG E2 (APP holoprotein; EGTA or KN-93 100 μM): significantly inhibited
- effect on the increase in APP mRNA stimulated by PG E2 (APP mRNA; 24 h): significantly inhibited

Compound: NC[C@H](O)c1ccc(O)c(O)c1 [NE, norepinephrine]
- PI hydrolysis (PI hydrolysis; NE 50 μM, 1 h): significantly increased
- cAMP formation (cellular cAMP levels; NE 50 μM, 1 h): significantly increased
- glial fibrillary acidic protein immunoreactivity [1]: increase
- APP holoprotein in cell lysates, of that seen in untreated cells (APP holoprotein; 8Br-cAMP or NE, antibodies 22C11 and R37): 200%
- amount of cell-associated APP holoprotein relative to untreated cells (APP holoprotein; NE 50 μM, about 24 h, Western blot): ~1.7 fold
- cell-associated APP relative to untreated control cells (APP holoprotein; NE 50 μM, mAb22C11, p<0.05): significantly more
- APP holoprotein level versus NE concentration (APP holoprotein; NE 50-400 μM): do not increase linearly
- APP mRNA levels versus untreated cells (APP mRNA; 24 h, NE 50 or 100 μM, isoproterenol 50 μM, Northern blot): about 1.7 fold
- APP mRNA level versus NE concentration (APP mRNA; NE 50-400 μM): do not increase linearly
- APP mRNA, of untreated cells (APP mRNA; NE 50 or 100 μM, isoproterenol 50 μM): 180%
- process formation in astrocytes (astrocytes): increase
